According to patent US8545903B2 (priority 2009, dated 2013):
Like-named read-outs stand apart in the source and are kept apart here.

How the values were obtained:
[1] = test system: Madin-Darby canine kidney (MDCK, ATCC CCL-34) cell
[2] = molecular target: neuraminidase of recombinant rvH1N1 influenza A virus (A/Bervig_Mission/1/18) (Influenza A virus, UniProt Q9IGQ6); assay: biochemical
[3] = in vivo; cited from earlier work
[4] = in vitro; conditions: dog
[5] = in vivo; cited from earlier work; remark: listed apart in the source
[6] = in vitro; conditions: dog, mdck
[7] = molecular target: neuraminidase (R&D SYSTEM, 4858-NM) of recombinant rvH1N1 influenza A virus of 1918 Spanish flu virus (A/Bervig_Mission/1/18) (Influenza A virus, UniProt Q9IGQ6); assay: biochemical; parameters: species or system influenza A virus A/Bervig_Mission/1/18 (rvH1N1)
neuraminidase (R&D SYSTEM, 4858-NM) of recombinant rvH1N1 influenza A virus of 1918 Spanish flu virus (A/Bervig_Mission/1/18), sequence (Q9IGQ6 36-469 limits assumed): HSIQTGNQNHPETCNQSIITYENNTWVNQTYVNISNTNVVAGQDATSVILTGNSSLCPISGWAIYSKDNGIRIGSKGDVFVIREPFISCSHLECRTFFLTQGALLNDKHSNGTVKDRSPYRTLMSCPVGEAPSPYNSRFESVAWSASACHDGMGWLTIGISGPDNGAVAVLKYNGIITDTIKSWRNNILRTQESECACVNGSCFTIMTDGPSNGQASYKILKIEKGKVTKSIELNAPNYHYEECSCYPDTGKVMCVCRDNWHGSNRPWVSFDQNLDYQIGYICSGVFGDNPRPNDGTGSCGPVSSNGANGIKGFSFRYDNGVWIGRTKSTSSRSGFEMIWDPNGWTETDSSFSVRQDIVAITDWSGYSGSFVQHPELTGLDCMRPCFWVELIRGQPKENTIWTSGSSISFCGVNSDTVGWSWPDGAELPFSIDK

[8] = test system: influenza virus H9N2 (A/Chicken/Korea/MS96/96); assay: microbe, parasite or virus in culture; conditions: H9N2, MDCK, in Gallus gallus, read-out: EC50, 50% antiviral concentration
[9] = test system: influenza virus H9N2 (A/Chicken/Korea/MS96/96); assay: microbe, parasite or virus in culture; conditions: H9N2, MDCK, in Gallus gallus, read-out: EC50, 50% antiviral concentration; remark: listed apart in the source
[10] = test system: influenza virus H9N2 (A/Chicken/Korea/MS96/96); assay: in vitro; conditions: dog
[11] = test system: influenza virus H9N2 (A/Chicken/Korea/MS96/96); assay: microbe, parasite or virus in culture; conditions: H9N2, MDCK, in Gallus gallus, read-out: EC50, 50% antiviral concentration; remark: listed apart in the source
[12] = test system: influenza virus H9N2 (A/Chicken/Korea/MS96/96); assay: in vitro; conditions: dog; remark: listed apart in the source
[13] = test system: influenza virus H9N2 (A/Chicken/Korea/MS96/96); assay: microbe, parasite or virus in culture; conditions: H9N2, MDCK, in Gallus gallus, read-out: EC50, 50% antiviral concentration; remark: listed apart in the source
[14] = test system: influenza virus H9N2 (A/Chicken/Korea/MS96/96); conditions: read-out: EC50, 50% antiviral concentration
[15] = test system: influenza virus H9N2 (A/Chicken/Korea/MS96/96); conditions: read-out: EC50, 50% antiviral concentration; remark: listed apart in the source
[16] = read-out: Neuraminidase inhibitory activity (IC50) A/Bervig-Mission/1/18 (rvH1N1)

neuraminidase of recombinant rvH1N1 influenza A virus (A/Bervig_Mission/1/18), sequence (Q9IGQ6 whole entry, looked up): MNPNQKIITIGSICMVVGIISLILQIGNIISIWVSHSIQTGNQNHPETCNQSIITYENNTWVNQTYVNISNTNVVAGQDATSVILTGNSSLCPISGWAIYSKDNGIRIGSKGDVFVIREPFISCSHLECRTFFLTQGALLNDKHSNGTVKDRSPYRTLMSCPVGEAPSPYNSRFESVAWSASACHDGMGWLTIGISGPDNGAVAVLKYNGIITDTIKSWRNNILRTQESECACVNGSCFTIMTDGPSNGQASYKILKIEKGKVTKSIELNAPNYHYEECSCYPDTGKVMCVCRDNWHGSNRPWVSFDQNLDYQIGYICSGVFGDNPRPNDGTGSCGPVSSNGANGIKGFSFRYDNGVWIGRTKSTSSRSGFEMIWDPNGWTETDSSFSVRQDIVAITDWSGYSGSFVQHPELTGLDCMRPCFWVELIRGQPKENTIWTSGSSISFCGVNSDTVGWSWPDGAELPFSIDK

With Demethoxycurcumin the CC50 [1] was 97 µM and the IC50 [2, 16] was 3 µM.

In the case of `NC12CC3CC(CC(C3)C1)C2` [Amatadine], the side effects [3] is listed as “severe side effects occur in the nervous system and stomach”.

In the case of `COc1cc(/C=C/C(=O)/C=C(O)/C=C/c2ccc(O)c(OC)c2)ccc1O` [Curcumin], the CC50 [4] is reported as 94.1 µM and the IC50 [2] is reported as 3 µM.

In the case of `CCOC(=O)C1=C[C@@H](OC(CC)CC)[C@H](NC(C)=O)[C@@H](N)C1` [Oseltamivir], the side effects [3] is given as “severe vomiting”.

In the case of `CC(=O)N[C@H]1[C@H]([C@H](O)[C@H](O)CO)OC(C(=O)O)=C[C@@H]1N=C(N)N` [Zanamivir], the “release from the kidney” value [5] is given as “quick release from the kidney”.

For `CC(N)C12CC3CC(CC(C3)C1)C2` (centres unmarked) [Rimatadine], the side effects [3] is given as “severe side effects occur in the nervous system and stomach”.

`COc1cc(/C=C/C(=O)/C=C(O)/C=C/c2ccc(O)cc2)ccc1O` [Demethoxycurcumin] gave a CC50 [6] of 97 µM and an IC50 [7] of 3 µM.

`O=C(/C=C(O)/C=C/c1ccc(O)cc1)/C=C/c1ccc(O)cc1` [Bisdemethoxycurcumin] showed an EC50 [8] greater than 200 µM, an EC50 [9] of 182 µM and a CC50 [6] greater than 200 µM. For the same molecule, the IC50 [7] was 6 µM.

For `CCOC(=O)C1=C[C@@H](OC(CC)CC)[C@H](NC(C)=O)[C@@H](N)C1` [Tamiflu, reference compound], the selectivity ratio [10] was greater than 200, the EC50 [11] was less than 1 µM and the CC50 [4] was greater than 200 µM. For the same molecule, the selectivity ratio [12] was greater than 200 and the EC50 [13] was less than 1 µM.

Molecule Bisdemethoxycurcumin has an EC50 [14] of 182 µM, a CC50 [1] greater than 200 µM and an IC50 [2, 16] of 6 µM. It also gave an EC50 [15] greater than 200 µM.
